# Assay results from patent publication US10674724B2, “Method of activating immune response in plants” (priority 2012, dated 2020).
# Experiments:
# solubility in water = assay type: physicochemical
# [1] = biological target: T1, NPR1-dependent oligomer on the PR-1 promoter (Arabidopsis thaliana, UniProt P93002); test: Cross-linked-chromatin chromatography (3C Method); assay type: in vivo; conditions: wild-type plants, region −734 to −833
# T1 construct: in wild-type plants (WT), such an oligomer forms on the PR-1 promoter; endogenous in cells; host or cells: wild-type Arabidopsis plants
# T1 sequence (P93002 1-593): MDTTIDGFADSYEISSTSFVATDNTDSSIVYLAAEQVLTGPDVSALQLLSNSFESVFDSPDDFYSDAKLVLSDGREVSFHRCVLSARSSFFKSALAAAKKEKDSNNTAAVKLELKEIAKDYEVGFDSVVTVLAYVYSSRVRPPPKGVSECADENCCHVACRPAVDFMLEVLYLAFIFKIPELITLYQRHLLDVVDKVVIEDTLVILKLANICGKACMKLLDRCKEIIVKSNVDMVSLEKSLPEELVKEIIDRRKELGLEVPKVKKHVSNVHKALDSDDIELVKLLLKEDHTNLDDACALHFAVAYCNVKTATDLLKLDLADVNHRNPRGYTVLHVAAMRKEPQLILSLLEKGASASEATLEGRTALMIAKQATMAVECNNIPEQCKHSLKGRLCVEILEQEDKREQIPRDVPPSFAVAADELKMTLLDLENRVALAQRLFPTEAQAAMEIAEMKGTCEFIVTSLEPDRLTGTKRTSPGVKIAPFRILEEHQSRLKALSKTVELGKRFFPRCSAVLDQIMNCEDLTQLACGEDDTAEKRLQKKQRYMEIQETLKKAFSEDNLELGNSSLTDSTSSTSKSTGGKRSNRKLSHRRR
# Method: Plant treatment, cross-linking, sonication, and cross-linking reversal were performed as for chromatin-immunoprecipitation (Rochon et al., 2006). Chromatography was as described under “Chromatography”. qPCR was performed with PR1 and Ubiquitin5 primers. PR-1 values were normalized against Ubiquitin5 (see Table 1 for primer sequence).
# Although there are no decisive methods to test the stoichiometry of a protein in vivo, it was determined whether or not NPR1-dependent oligomers form on DNA in vivo by combining chromatin cross-linking, gel filtration, and qPCR (the 3C Method). The rationale was that, if an NPR1-dependent oligomer forms on the PR1 promoter in vivo, the presence of PR1 should be detectable by qPCR in the void fraction of an S300 after the chromatin had been cross-linked and sheared by sonication.
# PR-1 expression = PR-1 expression by quantitative RT-PCR after chemical treatment; assay type: in vivo, Arabidopsis; conditions: 12 hrs
# Method: Total RNA was extracted from leaves using the Rneasy plant mini kit (Qiagen) according to the supplier's instructions. After treatment with Dnase I (Invitrogen), first strand cDNA synthesis was generated using SuperScript II reverse transcriptase (Invitrogen), and the (dT)17VN oligo in the presence of 0.4 U Rnasin (Fisher Scientific). The newly-synthesized cDNA was diluted 1/200 to reflect a concentration of 10 ng μL^−1 input total RNA. RT-PCR was performed on a CFX96 spectrofluorometric thermal cycler (BioRad). Firefly luciferase values were normalized against Renilla Luciferase and PR-1 values against Ubiquitin5 (see Table 1 for primer sequence). […] All treatments were for 12 hrs. Values consist of n=3 biological replicates and represent averages±1 SD.
# NPR1 [2] = biological target: T2, NPR1 (Arabidopsis thaliana, UniProt P93002); test: homologous and heterologous competitive binding curves for the [14C]SA-NPR1 interaction (equilibrium dialysis); conditions: 0.08 μM NPR1, 0.07 μM [14C]SA
# T2 construct: made in house; host or cells: E. coli
# Method: Given the dissociation reaction:
# For the saturation binding curves (FIGS. 1C and 7D/E), 0.8 μM of NPR1 protein was incubated with a final concentration of 0.007-14 μM [^14C]SA. The data was analyzed by non-linear regression using GraphPad PRISM 4 and fitted to a one-site-binding rectangular hyperbola. For homologous and heterologous competitive binding curves (FIGS. 1E/F and 7F/G), 0.08 μM of NPR1 protein was incubated with a final concentration of 0.07 μM [^14C]SA.
# NPR1 [3] = biological target: T2, NPR1; test: Sephacryl S300 gel filtration of Strep-tagged NPR1; assay type: biochemical; conditions: 1 mM SA, catechol, 4-hydroxy benzoic acid or methyl-salicylate, 30 min; DTT concentration not given
# Method: Strep-tagged purified proteins in a final volume of 2 ml were subjected to gel filtration analysis on the Sephacryl S100 HR or Sephacryl S300 HR packed in 50 cm long HR 16 columns (GE Health) and equilibrated with S300 chromatography buffer (50 mM HEPES, pH 7.4, 250 mM NaCl. Elutions, in 0.5 ml fractions, were performed in the same buffer at a flow rate of 0.8 ml/min. Where indicated, proteins were incubated with 1 mM SA, 1 mM catechol, 1 mM 4-hydroxy benzoic acid, or 1 mM methyl-salicylate at room temperature for 30 min prior to chromatography as described above with the exception that the chromatography buffer was supplemented with 1 mM SA, 1 mM catechol, 1 mM 4-hydroxy benzoic acid, or 1 mM methyl-salicylate, respectively. In the case of the EDTA treatment, NPR1 was stripped of its metal by a 50 mM EDTA treatment of 30 min, followed by an incubation of 30 min with 1 mM SA prior to gel filtration. In this case, the chromatography buffer was supplemented with 1 mM SA.
# [4] = 300 μM, fold-induction over water
solubility in water (solubility in water),SMILES,"NPR1-dependent oligomer on the PR-1 promoter (void fraction, qPCR) [1]",affinity for NPR1 compared with SA (competitive binding) (NPR1 [2]),conformation of NPR1 (S300 elution profile) (NPR1 [3]),other results
,Oc1ccccc1O [catechol],,do not interact with NPR1 with the same affinity as SA,do not alter the conformation of NPR1,
,O=C(O)c1ccc(O)cc1 [4-hydroxy benzoic acid],did not reduce the amount of NPR1-dependent oligomer,do not interact with NPR1 with the same affinity as SA,do not alter the conformation of NPR1,
,O[C@@H](CS)[C@@H](O)CS [DTT],,,did not induce a redistribution of the protein to the included volume,
,O=C(O)c1cccc(O)c1 [3-hydroxy benzoic acid],,do not interact with NPR1 with the same affinity as SA,,
low solubility in water,"O=C(O)c1cc(Cl)cc(Cl)c1O [3,5-dichloro SA]",,,,
low solubility in water,O=C(O)c1ccc(Cl)cc1O [4-chloro SA],,,,
low solubility in water,"CSC(=O)c1cccc2nnsc12 [BTH, benzo(1,2,3)thiadiazole-7-carbothioic acid S-methyl ester]",reduced the amount of NPR1-dependent oligomer on the PR-1 promoter,,,PR-1 expression (PR-1 expression; BTH at 100 μM): capacity to induce PR-1 expression

SMILES,solubility in water (solubility in water),"NPR1-dependent oligomer on the PR-1 promoter (void fraction, qPCR) [1]",affinity for NPR1 compared with SA (competitive binding) (NPR1 [2]),conformation of NPR1 (S300 elution profile) (NPR1 [3]),other results
"O=C(O)c1cc(Cl)nc(Cl)c1 [INA, 2,6-dichloroisonicotinic acid]",low solubility in water,did not affect the NPR1-dependent oligomer on the PR-1 promoter,,,"PR-1 expression (PR-1 expression; 300 μM): poor inducer of PR-1 expression; PR-1 induction, times less effective than an identical concentration of 4-chloro SA (PR-1 expression; [4]): 10 times; PR-1 induction, times less effective than an identical concentration of SA (PR-1 expression; [4]): 42 times"
